Read-outs that look alike come from different tables or passages of the source.
System: Phytophthora infestans
Type: in vivo
Conditions: individual active compound, tomato leaves, infected next day, assessed after 6 days

## CC1CCN(c2c(-c3c(F)cccc3Cl)c(Cl)nc3ncnn23)CC1 [A]
0.25 ppm in the spray liquor
  Efficacy in % of the untreated control: 0%
16 ppm in the spray liquor
  Efficacy in % of the untreated control: 0%

## C[C@H](Nc1c(-c2c(F)cc(F)cc2F)c(Cl)nc2ncnn12)C(F)(F)F [B]
0.25 ppm in the spray liquor
  Efficacy in % of the untreated control: 0%
16 ppm in the spray liquor
  Efficacy in % of the untreated control: 0%

## CNC(=O)/C(=N/OC)c1ccccc1COc1cc(C)ccc1C [I, dimoxystrobin]
0.25 ppm in the spray liquor
  Efficacy in % of the untreated control: 0%
1 ppm in the spray liquor
  Efficacy in % of the untreated control: 56%

## CC1CCN(c2c(-c3c(F)cc(F)cc3F)c(Cl)nc3ncnn23)CC1 [II, 5-chloro-7-(4-methylpiperidin-1-yl)-6-(2,4,6-trifluorophenyl)-[1,2,4]tri-azolo[1,5-a]pyrimidine]
0.25 ppm in the spray liquor
  Efficacy in % of the untreated control: 0%
16 ppm in the spray liquor
  Efficacy in % of the untreated control: 0%
